Data on 24 compounds can be found in US20250230140A1 (Viva Star Biosciences (Suzhou) Co., Ltd., priority 2021, published 2025).

The IC50 is the midpoint of a concentration-inhibition curve.

This experiment concerns the target T1, LPA1 (Homo sapiens, UniProt Q92633).
T1 construct: ProLink (β-galactosidase enzyme-donor fragment); host or cells: CHO-K1 (PathHunter EDG2 β-Arrestin cell line)
Kind of experiment: LPA1 calcium flux assay (LPA1 functional antagonist assay). Format: cell-based. To be noted: PathHunter CHO-K1 EDG2 β-Arrestin cells, calcium indicator dye, stimulated with EC80 concentration of LPA, FLIPR. The method, then:
The effectiveness of compounds of the present invention as LPA1 inhibitors can be determined in an LPA1 functional antagonist assay as follows.
PathHunter® CHO-K1 EDG2 β-Arrestin Cell Line (Eurofins DiscoverX Corporation, Cat #93-0644C2) were plated overnight (11,500 cells/well) in poly-D-lysine coated 384-well microplates (Corning, Cat #356697) in AssayComplete™ Cell Plating 35 Reagent (Eurofins DiscoverX Corporation, Cat #93-0563R35). Following overnight culture, cells were loaded with calcium indicator dye from the HitHunter Calcium No WashPLUS Assay kit (Eurofins DiscoverX Corporation, Cat #93-0091) for 45 minutes at 37° C. Test compounds solubilized in DMSO (Sigma, Cat #276855) on 384-well polypropylene microplates (Greiner bio-one, Cat #781280) were then diluted to intermediate concentration with assay buffer [1×HBSS calcium/magnesium (Corning, Cat #21-023-CM) and 20 mM HEPES (Corning, Cat #25-060-Cl)] before addition to cells by Agilent Velocity 11 with a final concentration of 0.4% DMSO. After compound addition, assay plates were equilibrated to room temperature for 30 minutes. Cells were then stimulated by addition of EC80 concentration of LPA (Cat #, 10010093) in assay buffer containing [1×HBSS calcium/magnesium (Corning, Cat #21-023-CM), 20 mM HEPES (Corning, Cat #25-060-Cl), and 0.1% BSA (Sigma, Cat #A8806)] using Molecular Devices FLIPR Tetra PLUS®. IC50 values were determined by Chemical and Biological Information System from ChemInnovation Software, Inc.
The compounds of this invention were tested for their activity to inhibit LPA1 as determined in an LPA1 functional antagonist assay as described herein.
(In general: Calcium assays in cells follow changes in intracellular calcium, usually with a dye or a luminescent sensor.)

T1 sequence (Q92633 whole entry, the tested form may be a part): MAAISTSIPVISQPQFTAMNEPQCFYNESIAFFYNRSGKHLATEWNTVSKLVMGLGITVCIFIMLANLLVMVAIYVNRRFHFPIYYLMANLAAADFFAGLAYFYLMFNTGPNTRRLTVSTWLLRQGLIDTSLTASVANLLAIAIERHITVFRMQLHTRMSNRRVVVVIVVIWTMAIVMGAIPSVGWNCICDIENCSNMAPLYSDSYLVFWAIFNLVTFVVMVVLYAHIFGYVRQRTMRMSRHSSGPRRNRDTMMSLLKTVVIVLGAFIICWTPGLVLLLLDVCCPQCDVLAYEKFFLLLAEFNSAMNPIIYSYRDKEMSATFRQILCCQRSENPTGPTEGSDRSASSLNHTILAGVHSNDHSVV

Take `CCCc1ccc(=O)n(Cc2c(-c3ccc(N4CC[C@H](C(C)(C)C(=O)O)C4)c(CC)n3)nnn2C)c1` [Example 16, (R)-2-(1-(2-ethyl-6-(1-methyl-5-((2-oxo-5-propylpyridin-1(2H)-yl)methyl)-1H-1,2,3-triazol-4-yl)pyridin-3-yl)pyrrolidin-3-yl)-2-methylpropanoic acid]: the IC50 is 0.5 to 5 µM.
In the case of `Cc1nc(-c2nnn(C)c2COc2nccc(C3CCC3)n2)ccc1N1CCC(CC(=O)O)C1` (stereo not drawn) [Example 3, 2-(1-(6-(5-(((4-cyclobutylpyrimidin-2-yl)oxy)methyl)-1-methyl-1H-1,2,3-triazol-4-yl)-2-methylpyridin-3-yl)pyrrolidin-3-yl)acetic acid] it was less than 0.1 µM; in that of `CCCc1ccc(=O)n(Cc2c(-c3ccc(C4CN(CC(=O)O)CC(F)(F)C4)c(C)n3)nnn2C)c1` (single isomer, unassigned) [Example 41, (S) or (R)-2-(3,3-difluoro-5-(2-methyl-6-(1-methyl-5-((2-oxo-5-propylpyridin-1(2H)-yl)methyl)-1H-1,2,3-triazol-4-yl)pyridin-3-yl)piperidin-1-yl)acetic acid], 0.1 to 0.5 µM; in that of `CCc1nc(-c2nnn(C)c2COc2nccc(C3CCC3)n2)ccc1N1CC[C@H]([C@@H](C)C(=O)O)C1` [Example 9], less than 0.1 µM.
As for `CCc1nc(-c2nnn(C)c2COc2cc(-n3cccn3)ncn2)ccc1C1CCOC(CC(=O)O)C1` (stereo not drawn) [Example 33, 2-(4-(6-(5-(((6-(1H-pyrazol-1-yl)pyrimidin-4-yl)oxy)methyl)-1-methyl-1H-1,2,3-triazol-4-yl)-2-ethylpyridin-3-yl)tetrahydro-2H-pyran-2-yl)acetic acid], the 50% inhibitory concentration (IC50) was 0.1 to 0.5 µM.
Take `Cc1nc(-c2nnn(C)c2COc2nccc(C3CCC3)n2)ccc1C1CC(CC(=O)O)CCO1` (stereo not drawn) [Example 26, 2-(2-(6-(5-(((4-cyclobutylpyrimidin-2-yl)oxy)methyl)-1-methyl-11H-1,2,3-triazol-4-yl)-2-methylpyridin-3-yl)tetrahydro-2H-pyran-4-yl)acetic acid]: the IC50 fell in the range of 0.1 to 0.5 µM.
Regarding `CCCc1ccc(=O)n(Cc2c(-c3ccc(N4CC[C@@H]([C@H](C)C(=O)O)C4)c(CC)n3)nnn2C)c1` [Example 13, (S)-2-((S)-1-(2-ethyl-6-(1-methyl-5-((2-oxo-5-propylpyridin-1(2H)-yl)methyl)-1H-1,2,3-triazol-4-yl)pyridin-3-yl)pyrrolidin-3-yl)propanoic acid], the IC50 is 0.1 to 0.5 µM.
For `CCc1nc(-c2nnn(C)c2COc2nccc(C3CCC3)n2)ccc1C1CCOC(CC(=O)O)C1` (single isomer, unassigned) [Example 34, 2-(4-(6-(5-(((4-cyclobutylpyrimidin-2-yl)oxy)methyl)-1-methyl-1H-1,2,3-triazol-4-yl)-2-ethylpyridin-3-yl)tetrahydro-2H-223,423-pyran-2-yl)acetic acid] the value was less than 0.1 µM.
Take `CCCc1ccc(=O)n(Cc2c(-c3ccc(O[C@H]4CCC[C@H](C(=O)O)C4)c(CC)n3)nnn2C)c1` [Example 43, (1S,3S)-3-((2-ethyl-6-(1-methyl-5-((2-oxo-5-propylpyridin-1(2H)-yl)methyl)-1H-1,2,3-triazol-4-yl)pyridin-3-yl)oxy)cyclohexanecarboxylic acid]: the half-maximal inhibitory concentration (IC50) is less than 0.1 µM.
For `CCCN(C)C(=O)OCc1c(-c2ccc(C3CCOC(CC(=O)O)C3)c(CC)n2)nnn1C` (stereo not drawn) [Example 30, 2-(4-{2-ethyl-6-[1-methyl-5-({[methyl(propyl)carbamoyl]oxy}methyl)-1H-1,2,3-triazol-4-yl]pyridin-3-yl}oxan-2-yl)acetic acid] the value was 0.5 to 5 µM; for `CCc1nc(-c2nnn(C)c2COc2nccc(C3CCC3)n2)ccc1C1CCOC(CC(=O)O)C1` (single isomer, unassigned) [Example 36, 2-(4-(6-(5-(((4-cyclobutylpyrimidin-2-yl)oxy)methyl)-1-methyl-1H-1,2,3-triazol-4-yl)-2-ethylpyridin-3-yl)tetrahydro-2H-223,423-pyran-2-yl)acetic acid], less than 0.1 µM; for `Cc1nc(-c2nnn(C)c2COc2nccc(C3CCC3)n2)ccc1N1CC[C@@H](CC(=O)O)C1` [Example 6, (S)-2-(1-(6-(5-(((4-cyclobutylpyrimidin-2-yl)oxy)methyl)-1-methyl-1H-1,2,3-triazol-4-yl)-2-methylpyridin-3-yl)pyrrolidin-3-yl)acetic acid], less than 0.1 µM.
In the case of `CCc1nc(-c2nnn(C)c2COc2nccc(C3CCC3)n2)ccc1N1CC[C@H]([C@H](C)C(=O)O)C1` [Example 11] it was less than 0.1 µM.
For the compound `CCc1nc(-c2nnn(C)c2COc2nccc(C3CCC3)n2)ccc1C1CCOC(CC(=O)O)C1` (single isomer, unassigned) [Example 37, 2-(4-(6-(5-(((4-cyclobutylpyrimidin-2-yl)oxy)methyl)-1-methyl-1H-1,2,3-triazol-4-yl)-2-ethylpyridin-3-yl)tetrahydro-2H-2λ^3,4λ^3-pyran-2-yl)acetic acid], the IC50 was less than 0.1 µM.
Regarding `CCCc1ccc(=O)n(Cc2c(-c3ccc(C4CN(CC(=O)O)CC(F)(F)C4)c(C)n3)nnn2C)c1` (single isomer, unassigned) [Example 40, (R) or (S)-2-(3,3-difluoro-5-(2-methyl-6-(1-methyl-5-((2-oxo-5-propylpyridin-1(2H)-yl)methyl)-1H-1,2,3-triazol-4-yl)pyridin-3-yl)piperidin-1-yl)acetic acid], the half-inhibitory concentration (IC50) is 5 to 10000 µM.
Turning to `CCCc1ccc(=O)n(Cc2c(-c3ccc(N4CC[C@@H]([C@@H](C)C(=O)O)C4)c(CC)n3)nnn2C)c1` [Example 12, (R)-2-((S)-1-(2-ethyl-6-(1-methyl-5-((2-oxo-5-propylpyridin-1(2H)-yl)methyl)-1H-1,2,3-triazol-4-yl)pyridin-3-yl)pyrrolidin-3-yl)propanoic acid], the half-inhibitory concentration (IC50) was in the range of 0.5 to 5 µM.
For `CCc1nc(-c2nnn(C)c2Cn2cc(CC3CC3)ccc2=O)ccc1O[C@H]1CCC[C@H](C(=O)O)C1` [Example 44, (1S,3S)-3-((6-(5-((5-(cyclopropylmethyl)-2-oxopyridin-1(2H)-yl)methyl)-1-methyl-1H-1,2,3-triazol-4-yl)-2-ethylpyridin-3-yl)oxy)cyclohexanecarboxylic acid] the value was less than 0.1 µM; for `Cc1nc(-c2nnn(C)c2COc2nccc(C3CCC3)n2)ccc1C1CCCC(CC(=O)O)C1` (stereo not drawn) [Example 39, 2-{3-[6-(5-{[(4-cyclobutylpyrimidin-2-yl)oxy]methyl}-1-methyl-1H-1,2,3-triazol-4-yl)-2-methylpyridin-3-yl]cyclohexyl}acetic acid], less than 0.1 µM; for `Cc1nc(-c2nnn(C)c2COc2nccc(C3CCC3)n2)ccc1N1CC[C@H](CC(=O)O)C1` [Example 5, (R)-2-(1-(6-(5-(((4-cyclobutylpyrimidin-2-yl)oxy)methyl)-1-methyl-1H-1,2,3-triazol-4-yl)-2-methylpyridin-3-yl)pyrrolidin-3-yl)acetic acid], 0.1 to 0.5 µM.
Turning to `CCCc1ccc(=O)n(Cc2c(-c3ccc(C4CC(CC(=O)O)CCO4)c(C)n3)nnn2C)c1` (stereo not drawn) [Example 27, 2-[2-(2-methyl-6-{1-methyl-5-[(2-oxo-5-propyl-1,2-dihydropyridin-1-yl)methyl]-1H-1,2,3-triazol-4-yl}pyridin-3-yl)oxan-4-yl]acetic acid], the IC50 lay within 0.5 to 5 µM.
For `CCCN(C)C(=O)OCc1c(-c2ccc(N3CC[C@@H](C(CC)C(=O)O)C3)c(CC)n2)nnn1C` (single isomer, unassigned) [Example 20, (R) or (S)-2-((S)-1-(2-ethyl-6-(1-methyl-5-(((methyl(propyl)carbamoyl)oxy)methyl)-1H-1,2,3-triazol-4-yl)pyridin-3-yl)pyrrolidin-3-yl)butanoic acid] the value was 0.5 to 5 µM; for `Cc1nc(-c2nnn(C)c2COc2cc(-n3cccn3)ncn2)ccc1N1CC[C@H](CC(=O)O)C1` [Example 7, (R)-2-(1-(6-(5-(((6-(1H-pyrazol-1-yl)pyrimidin-4-yl)oxy)methyl)-1-methyl-1H-1,2,3-triazol-4-yl)-2-methylpyridin-3-yl)pyrrolidin-3-yl)acetic acid], 0.1 to 0.5 µM.
For the compound `CCc1nc(-c2nnn(C)c2COc2nccc(C3CCC3)n2)ccc1N1CC[C@@H](CC(=O)O)C1` [Example 1, 2-[(3S)-1-[6-(5-{[(4-cyclobutylpyrimidin-2-yl)oxy]methyl}-1-methyl-1H-1,2,3-triazol-4-yl)-2-ethylpyridin-3-yl]pyrrolidin-3-yl]acetic acid], the IC50 is less than 0.1 µM.
For `CCCc1ccc(=O)n(Cc2c(-c3ccc(N4CC[C@@H](C(CC)C(=O)O)C4)c(CC)n3)nnn2C)c1` (single isomer, unassigned) [Example 18, (R) or (S)-2-((S)-1-(2-ethyl-6-(1-methyl-5-((2-oxo-5-propylpyridin-1(2H)-yl)methyl)-1H-1,2,3-triazol-4-yl)pyridin-3-yl)pyrrolidin-3-yl)butanoic acid] the value was 5 to 10000 µM.
